Converted amounts (≈) assume the structure as drawn.
Assays:
Staphylococcus aureus [1] = test: Antibacterial activity against Staphylococcus aureus clinical isolate assessed as growth inhibition at pH 5 after 16 to 18 hr by NCCLS agar dilution method; assay type: functional
Staphylococcus aureus [2] = test: Antibacterial activity against Staphylococcus aureus clinical isolate 22 assessed as growth inhibition at pH 9 after 16 to 18 hr by NCCLS agar dilution method; assay type: functional
Staphylococcus aureus [3] = test: Antibacterial activity against Staphylococcus aureus clinical isolate 10 assessed as growth inhibition at pH 5 after 16 to 18 hr by NCCLS agar dilution method; assay type: functional
Staphylococcus aureus [4] = test: Antibacterial activity against Staphylococcus aureus clinical isolate 9 assessed as growth inhibition after 16 to 18 hr by NCCLS agar dilution method; assay type: functional
Staphylococcus aureus [5] = test: Bactericidal activity against methicillin-resistant Staphylococcus aureus after 24 hr; assay type: functional
Helicobacter pylori [6] = test: Antibacterial activity against Helicobacter pylori 06-8 assessed as growth inhibition after 16 to 18 hr NCCLS agar dilution method; assay type: functional
[7] = Acute toxicity in KM Mus musculus (mouse) administered through intragastrically measured for 1 week; assay type: organism-based; settings: in vivo, po
Staphylococcus aureus [8] = test: Antibacterial activity against Staphylococcus aureus clinical isolate 8 assessed as growth inhibition at pH 5 after 16 to 18 hr by NCCLS agar dilution method; assay type: functional
Staphylococcus aureus [9] = test: Bactericidal activity against Staphylococcus aureus clinical isolate 7 after 24 hr; assay type: functional; settings: isolate 7, 24 h
Staphylococcus aureus [10] = test: Antibacterial activity against Staphylococcus aureus clinical isolate 15 assessed as growth inhibition at pH 9 after 16 to 18 hr by NCCLS agar dilution method; assay type: functional
Staphylococcus aureus [11] = test: Antibacterial activity against Staphylococcus aureus clinical isolate 11 assessed as growth inhibition at pH 9 after 16 to 18 hr by NCCLS agar dilution method; assay type: functional
Staphylococcus aureus [12] = test: Antibacterial activity against methicillin-resistant Staphylococcus aureus isolate 3 assessed as growth inhibition after 16 to 18 hr by NCCLS agar dilution method; assay type: functional
Staphylococcus aureus [13] = test: Antibacterial activity against Staphylococcus aureus clinical isolate 1 assessed as growth inhibition at pH 9 after 16 to 18 hr by NCCLS agar dilution method; assay type: functional
Staphylococcus aureus [14] = test: Bactericidal activity against Staphylococcus aureus clinical isolate 5 after 24 hr; assay type: functional; settings: isolate 5, 24 h
Staphylococcus aureus [15] = test: Antibacterial activity against Staphylococcus aureus clinical isolate 16 assessed as growth inhibition at pH 9 after 16 to 18 hr by NCCLS agar dilution method; assay type: functional
Escherichia coli = test: Antibacterial activity against Escherichia coli ATCC 25922 assessed as growth inhibition after 16 to 18 hr NCCLS agar dilution method; assay type: functional
Staphylococcus aureus [16] = test: Antibacterial activity against Staphylococcus aureus clinical isolate 9 assessed as growth inhibition at pH 7 after 16 to 18 hr by NCCLS agar dilution method; assay type: functional
Helicobacter pylori [17] = test: Antibacterial activity against Helicobacter pylori 05-4 assessed as growth inhibition after 16 to 18 hr NCCLS agar dilution method; assay type: functional, 05-Apr
Staphylococcus aureus [18] = test: Antibacterial activity against Staphylococcus aureus clinical isolate 16 assessed as growth inhibition at pH 5 after 16 to 18 hr by NCCLS agar dilution method; assay type: functional
Staphylococcus aureus [19] = test: Antibacterial activity against methicillin-resistant Staphylococcus aureus isolate 5 assessed as growth inhibition after 16 to 18 hr by NCCLS agar dilution method; assay type: functional
Staphylococcus aureus [20] = test: Antibacterial activity against Staphylococcus aureus clinical isolate 14 assessed as growth inhibition at pH 9 after 16 to 18 hr by NCCLS agar dilution method; assay type: functional
Staphylococcus aureus [21] = test: Antibacterial activity against Staphylococcus aureus clinical isolate 18 assessed as growth inhibition at pH 7 after 16 to 18 hr by NCCLS agar dilution method; assay type: functional
Staphylococcus aureus [22] = test: Bactericidal activity against methicillin-resistant Staphylococcus aureus isolate 3 after 24 hr; assay type: functional; settings: isolate 3, 24 h
Staphylococcus aureus [23] = test: Bactericidal activity against Staphylococcus aureus clinical isolate 8 after 24 hr; assay type: functional; settings: isolate 8, 24 h
Staphylococcus aureus [24] = test: Antibacterial activity against Staphylococcus aureus clinical isolate 2 assessed as growth inhibition at pH 9 after 16 to 18 hr by NCCLS agar dilution method; assay type: functional
Staphylococcus aureus [25] = test: Antibacterial activity against Staphylococcus aureus clinical isolate 12 assessed as growth inhibition at pH 7 after 16 to 18 hr by NCCLS agar dilution method; assay type: functional
Helicobacter pylori [26] = test: Antibacterial activity against Helicobacter pylori 05-2 assessed as growth inhibition after 16 to 18 hr NCCLS agar dilution method; assay type: functional
Staphylococcus aureus [27] = test: Antibacterial activity against Staphylococcus aureus clinical isolate 1 assessed as growth inhibition at pH 7 after 16 to 18 hr by NCCLS agar dilution method; assay type: functional
Staphylococcus aureus [28] = test: Antibacterial activity against Staphylococcus aureus clinical isolate 22 assessed as growth inhibition at pH 7 after 16 to 18 hr by NCCLS agar dilution method; assay type: functional
Staphylococcus aureus [29] = test: Bactericidal activity against Staphylococcus aureus clinical isolate 2 after 24 hr; assay type: functional; settings: isolate 2, 24 h
Staphylococcus aureus [30] = test: Antibacterial activity against Staphylococcus aureus clinical isolate 15 assessed as growth inhibition at pH 7 after 16 to 18 hr by NCCLS agar dilution method; assay type: functional
Staphylococcus aureus [31] = test: Antibacterial activity against Staphylococcus aureus clinical isolate 18 assessed as growth inhibition at pH 9 after 16 to 18 hr by NCCLS agar dilution method; assay type: functional
Staphylococcus aureus [32] = test: Bactericidal activity against Staphylococcus aureus clinical isolate 9 after 24 hr; assay type: functional; settings: isolate 9, 24 h
Staphylococcus aureus [33] = test: Antibacterial activity against Staphylococcus aureus clinical isolate 2 assessed as growth inhibition at pH 5 after 16 to 18 hr by NCCLS agar dilution method; assay type: functional
Staphylococcus aureus [34] = test: Antibacterial activity against Staphylococcus aureus clinical isolate 7 assessed as growth inhibition at pH 9 after 16 to 18 hr by NCCLS agar dilution method; assay type: functional
Staphylococcus aureus [35] = test: Antibacterial activity against Staphylococcus aureus clinical isolate 10 assessed as growth inhibition at pH 7 after 16 to 18 hr by NCCLS agar dilution method; assay type: functional
Helicobacter pylori [36] = test: Antibacterial activity against Helicobacter pylori 05-3 assessed as growth inhibition after 16 to 18 hr NCCLS agar dilution method; assay type: functional
Staphylococcus aureus [37] = test: Antibacterial activity against Staphylococcus aureus clinical isolate 11 assessed as growth inhibition at pH 7 after 16 to 18 hr by NCCLS agar dilution method; assay type: functional
Staphylococcus aureus [38] = test: Antibacterial activity against Staphylococcus aureus clinical isolate 14 assessed as growth inhibition at pH 5 after 16 to 18 hr by NCCLS agar dilution method; assay type: functional
Helicobacter pylori [39] = test: Antibacterial activity against Helicobacter pylori 05-5 assessed as growth inhibition after 16 to 18 hr NCCLS agar dilution method; assay type: functional
Staphylococcus aureus [40] = test: Antibacterial activity against Staphylococcus aureus clinical isolate 15 assessed as growth inhibition at pH 5 after 16 to 18 hr by NCCLS agar dilution method; assay type: functional
Staphylococcus aureus [41] = test: Antibacterial activity against Staphylococcus aureus clinical isolate 13 assessed as growth inhibition at pH 5 after 16 to 18 hr by NCCLS agar dilution method; assay type: functional
Staphylococcus aureus [42] = test: Antibacterial activity against methicillin-resistant Staphylococcus aureus isolate 1 assessed as growth inhibition after 16 to 18 hr by NCCLS agar dilution method; assay type: functional
Staphylococcus aureus [43] = test: Antibacterial activity against Staphylococcus aureus clinical isolate 6 assessed as growth inhibition at pH 9 after 16 to 18 hr by NCCLS agar dilution method; assay type: functional

For CO/N=C/CC(=O)c1ccc(OC)cc1, the MIC50 (Staphylococcus aureus [1]) was 32 µg/mL (≈ 154 µM), the MIC90 (Staphylococcus aureus [1]) was 64 µg/mL (≈ 309 µM) and the MIC (Staphylococcus aureus [2]) was 8 µg/mL (≈ 38.6 µM). It also gave an MIC (Staphylococcus aureus [3]) of 16 µg/mL (≈ 77.2 µM), an MIC (Staphylococcus aureus [4]) of 16 µg/mL (≈ 77.2 µM) and an MBC50 (Staphylococcus aureus [5]) of 256 µg/mL (≈ 1240 µM). For the same compound, the MBC90 (Staphylococcus aureus [5]) was 256 µg/mL (≈ 1240 µM), the MIC (Helicobacter pylori [6]) was 32 µg/mL (≈ 154 µM) and the MTD at 168 h [7] was 5000 mg/kg. For the same compound, the MIC (Staphylococcus aureus [8]) was 32 µg/mL (≈ 154 µM), the MBC (Staphylococcus aureus [9]) was 128 µg/mL (≈ 618 µM) and the MIC (Staphylococcus aureus [10]) was 8 µg/mL (≈ 38.6 µM). For the same compound, the MIC (Staphylococcus aureus [11]) was 8 µg/mL (≈ 38.6 µM), the MIC (Staphylococcus aureus [12]) was 8 µg/mL (≈ 38.6 µM) and the MIC (Staphylococcus aureus [13]) was 16 µg/mL (≈ 77.2 µM). The MBC (Staphylococcus aureus [14]) was 64 µg/mL (≈ 309 µM), the MIC (Staphylococcus aureus [15]) was 8 µg/mL (≈ 38.6 µM) and the MIC (Escherichia coli) was over 64 µg/mL. It also gave an MIC (Staphylococcus aureus [16]) of 32 µg/mL (≈ 154 µM), an MIC (Helicobacter pylori [17]) of 16 µg/mL (≈ 77.2 µM) and an MIC (Staphylococcus aureus [18]) of 32 µg/mL (≈ 154 µM). For the same compound, the MIC (Staphylococcus aureus [19]) was 8 µg/mL (≈ 38.6 µM), the MIC (Staphylococcus aureus [20]) was 8 µg/mL (≈ 38.6 µM) and the MIC (Staphylococcus aureus [21]) was 16 µg/mL (≈ 77.2 µM). It also gave an MBC (Staphylococcus aureus [22]) of 256 µg/mL (≈ 1240 µM), an MBC (Staphylococcus aureus [23]) of 32 µg/mL (≈ 154 µM) and an MIC (Staphylococcus aureus [24]) of 8 µg/mL (≈ 38.6 µM). For the same compound, the MIC (Staphylococcus aureus [25]) was 32 µg/mL (≈ 154 µM), the MIC (Helicobacter pylori [26]) was 16 µg/mL (≈ 77.2 µM) and the MIC (Staphylococcus aureus [27]) was 32 µg/mL (≈ 154 µM). The MIC (Staphylococcus aureus [28]) was 16 µg/mL (≈ 77.2 µM), the MBC (Staphylococcus aureus [29]) was 64 µg/mL (≈ 309 µM) and the MIC (Staphylococcus aureus [30]) was 8 µg/mL (≈ 38.6 µM). The MIC (Staphylococcus aureus [31]) was 16 µg/mL (≈ 77.2 µM), the MBC (Staphylococcus aureus [32]) was 128 µg/mL (≈ 618 µM) and the MIC (Staphylococcus aureus [33]) was 32 µg/mL (≈ 154 µM). For the same compound, the MIC (Staphylococcus aureus [34]) was 8 µg/mL (≈ 38.6 µM), the MIC (Staphylococcus aureus [35]) was 32 µg/mL (≈ 154 µM) and the MIC (Helicobacter pylori [36]) was 16 µg/mL (≈ 77.2 µM). The MIC (Staphylococcus aureus [37]) was 16 µg/mL (≈ 77.2 µM), the MIC (Staphylococcus aureus [38]) was 32 µg/mL (≈ 154 µM) and the MIC (Helicobacter pylori [39]) was 32 µg/mL (≈ 154 µM). It also gave an MIC (Staphylococcus aureus [40]) of 16 µg/mL (≈ 77.2 µM), an MIC (Staphylococcus aureus [41]) of 32 µg/mL (≈ 154 µM) and an MIC (Staphylococcus aureus [42]) of 8 µg/mL (≈ 38.6 µM). It also gave an MIC (Staphylococcus aureus [43]) of 8 µg/mL (≈ 38.6 µM).

Source: ChEMBL document CHEMBL3045868, “Synthesis and antibacterial activities of para-alkoxy phenyl--ketoaldehyde derivatives” (Med Chem Res, 2013)
